What follows are compounds tested against T1, USP28 (His-tagged USP28-FL-mammalian) (Homo sapiens, UniProt Q96RU2) (assay: Ubiquitin-Rhodamine 110 Assay for USP28 Activity, Example A-1(a)). Conditions: Ubiquitin-Rhodamine 110 assay, Example A-1(a); read-out: USP28 A-1(a) IC50 range.
T1 construct: Expression of USP28 (1-1077)-TEV-6*His (pTT5 vector); made in house; host or cells: Expi293f cells (pTT5 vector)
T1 sequence (Q96RU2 1-1077): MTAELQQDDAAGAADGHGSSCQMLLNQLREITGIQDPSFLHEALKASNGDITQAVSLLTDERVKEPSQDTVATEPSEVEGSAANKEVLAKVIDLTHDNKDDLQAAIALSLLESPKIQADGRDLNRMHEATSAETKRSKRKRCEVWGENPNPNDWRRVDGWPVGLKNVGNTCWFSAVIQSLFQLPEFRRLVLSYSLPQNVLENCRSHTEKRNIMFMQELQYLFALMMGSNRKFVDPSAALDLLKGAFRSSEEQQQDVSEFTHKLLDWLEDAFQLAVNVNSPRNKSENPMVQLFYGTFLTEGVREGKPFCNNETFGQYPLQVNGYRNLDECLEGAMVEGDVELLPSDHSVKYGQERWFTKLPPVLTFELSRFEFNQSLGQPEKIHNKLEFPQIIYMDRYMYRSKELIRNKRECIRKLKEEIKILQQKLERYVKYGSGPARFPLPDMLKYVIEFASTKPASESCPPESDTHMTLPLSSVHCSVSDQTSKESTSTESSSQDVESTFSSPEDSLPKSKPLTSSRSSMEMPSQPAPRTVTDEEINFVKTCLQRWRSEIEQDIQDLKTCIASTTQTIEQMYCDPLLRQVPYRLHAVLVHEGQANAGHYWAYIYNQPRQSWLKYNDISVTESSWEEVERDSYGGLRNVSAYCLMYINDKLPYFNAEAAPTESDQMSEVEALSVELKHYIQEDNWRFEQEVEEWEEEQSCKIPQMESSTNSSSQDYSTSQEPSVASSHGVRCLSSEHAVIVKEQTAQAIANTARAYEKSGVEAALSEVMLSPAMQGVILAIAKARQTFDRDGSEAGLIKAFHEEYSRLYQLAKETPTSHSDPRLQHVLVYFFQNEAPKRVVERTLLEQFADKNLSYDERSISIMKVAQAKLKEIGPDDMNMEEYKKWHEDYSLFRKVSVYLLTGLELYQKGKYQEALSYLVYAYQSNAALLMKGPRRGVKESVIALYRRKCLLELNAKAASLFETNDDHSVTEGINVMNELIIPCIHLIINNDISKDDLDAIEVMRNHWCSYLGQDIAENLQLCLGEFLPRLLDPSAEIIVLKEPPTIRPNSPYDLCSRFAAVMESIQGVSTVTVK
Type: biochemical
Outline: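 Full-length His-tagged USP28 (1-1077, Expi293F-expressed; […]) was preincubated 30 min with compound (25 μM–1.3 nM, 10-point 3-fold) in 20 mM Tris-HCl pH 8.0, 3 mM BME, 0.03% BGG, 0.01% Triton X-100. Ub-Rh110 (25 nM) was then added for 45 min at room temperature, stopped with citric acid, and read by fluorescence (485/535 nm).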
CC(=O)Nc1cccc(CNc2ccc(C(=O)N[C@H]3COc4cc(N5CCNCC5)ccc4C3)cn2)c1 [Example 473, (R)-6-((3-acetamidobenzyl)amino)-N-(7-(piperazin-1-yl)chroman-3-yl)nicotinamide] was tested, and the IC50 was > 2000 nM.
With CCc1cccc2c(C(=O)N[C@H]3COc4cc(N5CCNCC5)ccc4C3)cnn12 [Example 474, 7-ethyl-N-[(3R)-7-(piperazin-1-yl)-3,4-dihydro-2H-1-benzopyran-3-yl]pyrazolo[1,5-a]pyridine-3-carboxamide] the IC50 was 1 to 50 nM.
O=C(N[C@H]1COc2cc(N3CCNCC3)ccc2C1)c1cnn2c(CO)cccc12 [Example 475, 7-(hydroxymethyl)-N-[(3R)-7-(piperazin-1-yl)-3,4-dihydro-2H-1-benzopyran-3-yl]pyrazolo[1,5-a]pyridine-3-carboxamide] gave an IC50 of 200 to 2000 nM.

Source: patent US11524966B1 (Valo Early Discovery, Inc., priority 2017, dated 2022)
